Test results taken from US20210046143A1, “METHOD FOR TREATMENT OF THE HUMAN BODY BY THERAPY BY ADMINISTERING A COMPOSITION COMPRISING A PLANT EXTRACT OF THE SPECIE HEDYCHIUM CORONARIUM” (Societe D'exploitation De Produits Pour Les Industries …, priority 2016, published 2021).

Legend:
IL-8 = IL-8 release by human skin explants, pollution model (BaP), ELISA; assay type: cell-based; details: PMA 1 μg/ml systemic, 24 h, without pollution
Procedure: b)—The product was systemically applied for 24 hours, on human skin explants (diameter of 8 mm), provided by Biopredic™ International (Rennes), which derived from mammary plastic surgery (person);
c)—The product was then applied again during pollution, for another 24 hours. Said pollution was induced in this model by application of an environmental pollutant, benzo(a)pyrene (3,4-benzopyrene/BaP) as systemic treatment, i.e. in the culture medium. This pollutant induces IL-8 release (SEPhRA results).
a)—A 2% (DE) HCR extract is diluted in the culture medium to obtain a 0.1% (DE) HCR extract, which is used as the test compound.
b)—Said HCR extract was systemically applied on the skin explants as a twenty-four hours pre-treatment. […]
e)—In order to validate the IL-8 titration, an additional condition was evaluated, i.e. stimulation with a reference pro-inflammatory molecule PMA (Phorbol 12-myristate 13-acetate, Sigma P8139), at 1 μg/ml. […]
d)—The inflammatory cytokine IL-8 was then measured out with a commercial kit from Bio-Techne/R&Dsystems (D8000C), which is an ELISA method. […] Titration raw data were obtained by measuring the absorbance or the optical density (OD) at 450 nm wavelength, with 570 nm as a reference.
e)—The concentrations of IL-8 measured in the samples were determined by using a concentration range of an IL-8 standard. […]

[1] = test system: murine B16 melanocytes (B16-F0 line); assay: Melanin titration in B16 melanocytes (melanogenesis); assay type: cell-based; details: Mus musculus, B16F0; kojic acid 1 mM; read-out: Inhibition of the melanin release in the culture medium
Procedure: • 1)—Background Information The aim of this study is to evaluate the effects of HCR extracts on melanogenesis in an in vitro model of murine B16 melanocytes. Cells used in this study were murine melanocytes (B16-F0 line, LGC standards, ATCC-CRL-6322) extracted from murine skin. This cells lines synthesizes a great quantity of melanin which is released in the culture media (so called supernatants), so a titration by spectrophotometry is easy to achieve. These melanocytes were cultured as monolayers; the test compounds were applied during seventy two hours and the synthesized melanin was then released and measured out in the supernatants. A XTT assay was previously performed, to check the cells viability, in order to determine the concentrations to be tested, as described in Example 2. • 2)—Dose Determination (CytotoxicityNiability Check by XTT Assay) and Evaluated Test Compound
B16 melanocytes were seeded in 24-wells plates. […]
Cells were seeded into 24-wells plates (at a cell density of […], i.e. 31,250 B16/cm^2), in the same medium as previously described, one day before treatment (incubation at 37° C./5% CO2). […] After 48 or 72 hours of treatment, the supernatants were homogenized and aliquots were transferred to 96-well plates for spectrophotometry reading at 492 nm wavelength (reading in duplicate). […]

SMILES	IL-8 release, change compared to untreated/unpolluted control (IL-8)	inhibition at 1000 µM [1]
CCCCCCCCCCCCCC(=O)O[C@@H]1[C@@H](C)[C@@]2(O)[C@@H](C=C(CO)C[C@]3(O)C(=O)C(C)=C[C@@H]23)[C@@H]2C(C)(C)[C@]12OC(C)=O [PMA, Phorbol 12-myristate 13-acetate]	+224%	
O=c1cc(CO)occ1O [kojic acid]		> 90%
